Here are results for 59 compounds from US7423149B2, “Substituted n-aryl amidines as selective D1 dopamine receptor antagonists for the treatment of obesity and CNS disorders” (Schering Corporation, priority 2003, dated 2008).

For the test, the target named is T1, human Dopamine D1 receptor (Homo sapiens, UniProt P21728).
T1 construct: expressed in transfected cells; host or cells: Ltk- cells (mouse fibroblasts), membrane preparation
T1 sequence (P21728 whole entry): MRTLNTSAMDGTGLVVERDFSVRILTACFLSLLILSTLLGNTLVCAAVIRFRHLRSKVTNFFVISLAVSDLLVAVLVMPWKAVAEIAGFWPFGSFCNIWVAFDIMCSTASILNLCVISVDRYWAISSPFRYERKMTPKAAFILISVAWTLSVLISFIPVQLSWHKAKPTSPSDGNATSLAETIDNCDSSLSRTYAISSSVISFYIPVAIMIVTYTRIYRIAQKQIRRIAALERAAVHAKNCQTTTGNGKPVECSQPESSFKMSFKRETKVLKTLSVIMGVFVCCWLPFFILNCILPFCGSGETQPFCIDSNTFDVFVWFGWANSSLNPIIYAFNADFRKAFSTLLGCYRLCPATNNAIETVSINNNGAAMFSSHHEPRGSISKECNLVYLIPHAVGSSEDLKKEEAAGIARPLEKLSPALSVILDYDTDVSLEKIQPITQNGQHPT
Briefly: radioligand binding competition assay, displacement of [3H]SCH 23390 from D1 receptor (Ltk-cells membranes).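 Also: under 5 nM class also requires D2 to D1 selectivity above 500.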 The note with it: class combines Ki (D1) and, for A and B, D2:D1 selectivity (Ki D2 / Ki D1); read-out: D1 binding and D2:D1 Selectivity. The source says: Biological Activity: Compounds from this disclosure have been biologically characterized by their ability to displace a known D1-like selective ligand, [3H]SCH 23390 from the human Dopamine D1 receptor, and a known D2-like selective ligand, [3H] Methylspiperone, from the human Dopamine D2 and D4 receptors.
Affinity values (Ki) of compounds at human dopamine receptors were ascertained using radioligand binding competition assays. Cells expressing D1 (Ltk-cells), D2 (long variant, Ltk-cells), D4 (CHO cells) and D5 (GH4C1 cells) receptors were lysed in hypotonic buffer for membrane preparation. Membranes were incubated with various concentrations of test compound and 1 nM [3H] SCH 23390 (D1 and D5) and 0.2 nM [3H] Methylspiperone for (D2 and D4) assays. Non-specific binding was defined as binding in the presence of 10 micromolar of SCH 23390 for D1 and D5 assays and 10 micromolar butaclamol for D2 and D4 assays. Following incubation to equilibrium (1 hour at room temperature), bound radioligand was separated from free by rapid filtration. Bound radioactivity on the dried filters was quantified by liquid scintillation counting.
Selectivity is determined by dividing Ki for D2, D4 or D5 receptors by Ki for D1 receptor.
With `COc1ccc(/C=C/C(=N)Nc2cccc(C(F)(F)F)c2)cc1` [Example 1], the Ki was 0.05 to 10 µM. As for `N=C(/C=C/c1cc(C(F)(F)F)cc(C(F)(F)F)c1)Nc1ccc(Cl)cc1` [Example 2], the Ki lay within 0.05 to 10 µM. Then `N=C(/C=C/c1ccc(Cl)c([N+](=O)[O-])c1)Nc1ccc(Cl)cc1` [Example 3], with 0.05 to 10 µM; and `N=C(/C=C/c1ccc(OC(F)(F)F)cc1)Nc1ccc(Cl)cc1` [Example 4], with 0.05 to 10 µM; and `N=C(/C=C/c1ccccc1I)Nc1ccc(Cl)cc1` [Example 5], with 0.05 to 10 µM. With `N=C(/C=C/c1ccc(CN2CCCCC2)cc1)Nc1ccc(Cl)cc1` [Example 6], the Ki lay in the range of 0.05 to 10 µM. Then `CC(C)(C)c1ccc(/C=C/C(=N)Nc2ccc(Cl)cc2)cc1` [Example 7], with 0.01 to 0.05 µM. Regarding `N=C(/C=C/c1ccc(Cc2cccnc2)cc1)Nc1ccc(O)cc1` [Example 8], the Ki lay in the range of 0.05 to 10 µM. The result for `COc1ccc(NC(=N)/C=C/c2ccc(Cc3cccnc3)cc2)cc1Cl` [Example 9] reads 0.05 to 10 µM. Consider `CC(C)c1ccc(/C=C/C(=N)Nc2ccc(Cl)cc2)cc1` [Example 10], for which the Ki was 0.01 to 0.05 µM. Then `N=C(/C=C/c1cccc2ccccc12)Nc1ccc(Cl)cc1` [Example 12], with 0.05 to 10 µM; and `N=C(/C=C/c1ccc(Cl)cc1Cl)Nc1ccc(Cl)cc1` [Example 13], with 0.01 to 0.05 µM. The result for `N=C(/C=C/c1ccncc1)Nc1ccc(Cl)cc1` [Example 14] reads 0.05 to 10 µM; that for `N=C(/C=C/c1ccc(Cc2cccnc2)cc1)Nc1ccc2c(c1)CCC2` [Example 15], 0.01 to 0.05 µM. Then `N=C(/C=C/c1ccc(-c2ccccc2)cc1)Nc1ccc(Cl)cc1` [Example 16], with 0.01 to 0.05 µM. For `COc1ccc(/C=C/C(=N)Nc2cccc(C)c2)cc1` [Example 17], the Ki was in the range of 0.05 to 10 µM. Then `COc1ccc(/C=C/C(=N)Nc2ccc(F)c(Cl)c2)cc1` [Example 18], with 0.05 to 10 µM; and `N=C(/C=C/c1ccc(Cc2ccccn2)cc1)Nc1ccc(Cl)cc1` [Example 19], with 0.05 to 10 µM; and `CC1CCCCN1c1ccc(/C=C/C(=N)Nc2ccc(Cl)cc2)c(Cl)c1` (centres unmarked) [Example 20], with below 0.01 µM. The result for `N=C(/C=C/c1ccc(-c2ccc3[nH]ccc3c2)cc1)Nc1ccc(Cl)cc1` [Example 21, N-(4-chloro-phenyl)-3-[4-(1H -indol-5-yl)-phenyl]-acrylamidine] reads below 0.01 µM. Then `N=C(/C=C/c1ccc(Cc2cccnc2)cc1)Nc1ccc2c(c1)OCO2` [Example 22], with 0.05 to 10 µM; and `COc1ccc(/C=C/C(=N)Nc2ccc(Br)cc2)cc1` [Example 23], with 0.01 to 0.05 µM; and `N=C(/C=C/c1ccc(Cc2cccnc2)cc1)Nc1ccc(Br)cc1` [Example 24], with 0.01 to 0.05 µM. Consider `N=C(/C=C/c1ccc(-c2ccccn2)cc1)Nc1ccc(Cl)cc1` [Example 25], for which the Ki was in the range of 0.01 to 0.05 µM. Take `COc1ccc2cc(C(=N)Nc3ccc(Cl)cc3)ccc2c1` [Example 26]: the Ki fell in the range of 0.05 to 10 µM. Then `COc1cccc(OC)c1/C=C/C(=N)Nc1ccc(Cl)cc1` [Example 27], with 0.05 to 10 µM. As to `Cc1ccc(/C=C/C(=N)Nc2ccc(Cl)cc2)cc1` [Example 28], the Ki was 0.05 to 10 µM. For `COc1ccc(/C=C/C(=N)Nc2ccc(Cl)cc2)c(Cl)c1OC` [Example 29], the Ki fell in the range of 0.01 to 0.05 µM.

As to `N#Cc1cccc(-c2ccc(/C=C/C(=N)Nc3ccc(Cl)cc3)cc2)c1` [Example 30], the Ki was in the range of 0.01 to 0.05 µM.

For `Cc1ccc(NC(=N)/C=C/c2ccc(Cc3cccnc3)cc2)cc1` [Example 31], the Ki was in the range of 0.01 to 0.05 µM.

For `CC1CCCCN1c1ccc(/C=C/C(=N)Nc2ccc(Cl)cc2)cc1` (centres unmarked) [Example 32], the Ki was below 0.01 µM.

Take `CN1CCN(c2ccc(/C=C/C(=N)Nc3ccc(Cl)cc3)c(Cl)c2)CC1` [Example 33]: the Ki was below 0.01 µM.

`C[C@H]1CNCCN1c1ccc(/C=C/C(=N)Nc2ccc(Cl)cc2)c(Cl)c1` [Example 34]: the Ki was below 0.005 µM.

With `N=C(/C=C/c1ccc(Cc2ccncc2)cc1)Nc1ccc(Cl)cc1` [Example 35], the Ki fell in the range of 0.01 to 0.05 µM. The result for `N=C(/C=C/c1ccc(N2CCN(Cc3ccccc3)CC2)cc1)Nc1ccc(Cl)cc1` [Example 36] reads 0.01 to 0.05 µM. On to `CN(C)c1ccc(/C=C/C(=N)Nc2ccc(Cl)cc2)cc1` [Example 37], for which the Ki fell in the range of 0.01 to 0.05 µM. Then `CCN(CC)c1ccc(/C=C/C(=N)Nc2ccc(Cl)cc2)cc1` [Example 38], with 0.01 to 0.05 µM; and `C[C@@H]1CNCCN1c1ccc(/C=C/C(=N)Nc2ccc(Cl)cc2)c(Cl)c1` [Example 39], with below 0.005 µM. Then `CCN(CC)c1ccc(/C=C/C(=N)Nc2ccc(Cl)cc2)c(Cl)c1` [Example 40], with below 0.01 µM; and `N=C(/C=C/c1ccc(-c2cccc([N+](=O)[O-])c2)cc1)Nc1ccc(Cl)cc1` [Example 41], with 0.01 to 0.05 µM; and `N#Cc1ccc(-c2ccc(/C=C/C(=N)Nc3ccc(Cl)cc3)cc2)cc1` [Example 43], with below 0.01 µM. Then `N=C(/C=C/c1ccc(-c2ccc(C=O)cc2)cc1)Nc1ccc(Cl)cc1` [Example 44], with below 0.01 µM. As for `CC(CN1CCN(c2ccc(/C=C/C(=N)Nc3ccc(Cl)cc3)c(Cl)c2)CC1)c1ccccc1` (centres unmarked) [Example 45], the Ki fell in the range of 0.01 to 0.05 µM. Regarding `COC(=O)C1CC1CN1CCN(c2ccc(/C=C/C(=N)Nc3ccc(Cl)cc3)c(Cl)c2)CC1` (centres unmarked) [Example 46], the Ki is 0.01 to 0.05 µM. The result for `N=C(/C=C/c1ccc(N2CCN(Cc3cccs3)CC2)cc1Cl)Nc1ccc(Cl)cc1` [Example 47] reads 0.01 to 0.05 µM; that for `N=C(/C=C/c1ccc(Cc2cccnc2)cc1)Nc1ccc(Cl)cc1` [Example 48], 0.01 to 0.05 µM; that for `CC(=O)c1ccc(-c2ccc(/C=C/C(=N)Nc3ccc(Cl)cc3)cc2)cc1` [Example 49], 0.01 to 0.05 µM.

On to `CN1c2ccccc2Sc2cc(/C=C/C(=N)Nc3ccc(Cl)cc3)ccc21` [Example 50], for which the Ki is 0.01 to 0.05 µM. Turning to `COc1cc(N(C)C)ccc1/C=C/C(=N)Nc1ccc(Cl)cc1` [Example 51], the Ki fell in the range of 0.01 to 0.05 µM.

On to `CN1CCN(Cc2ccc(-c3ccc(/C=C/C(=N)Nc4ccc(Cl)cc4)cc3)cc2)CC1` [Example 52], for which the Ki lay within 0.01 to 0.05 µM. Then `N=C(/C=C/c1ccc(N2CCN(Cc3cccc(OC(F)(F)F)c3)CC2)cc1Cl)Nc1ccc(Cl)cc1` [Example 53], with 0.01 to 0.05 µM. The result for `COc1ccc(/C=C/C(=N)Nc2ccc(Cl)cc2)c(F)c1` [Example 54] reads 0.01 to 0.05 µM. Then `COc1ccc(/C=C/C(=N)Nc2cc(F)cc(F)c2)cc1` [Example 55], with 0.01 to 0.05 µM; and `CCC1CCC(N2CCN(c3ccc(/C=C/C(=N)Nc4ccc(Cl)cc4)c(Cl)c3)CC2)CC1` (centres unmarked) [Example 56], with 0.01 to 0.05 µM. Consider `N=C(/C=C/c1ccc(Cc2c[nH]cn2)cc1)Nc1ccc(Cl)cc1` [Example 57], for which the Ki lay within 0.01 to 0.05 µM. Then `N=C(/C=C/c1ccc(-c2cccc(F)c2)cc1)Nc1ccc(Cl)cc1` [Example 58], with 0.01 to 0.05 µM; and `C=Cc1ccc(-c2ccc(/C=C/C(=N)Nc3ccc(Cl)cc3)cc2)cc1` [Example 59], with 0.01 to 0.05 µM; and `CCC1CCCCN1c1ccc(/C=C/C(=N)Nc2ccc(Cl)cc2)cc1` (centres unmarked) [Example 60], with 0.01 to 0.05 µM. With `N=C(Nc1ccc(Cl)cc1)c1ccc2cc(N3CCN(Cc4ccccc4)CC3)ccc2c1` [Example 61], the Ki lay in the range of 0.01 to 0.05 µM.
